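Step 1: Grow cells in 96-well plates. Step 2: Expose to compound for 48 hours at 5 concentrations. Step 3: Interpolate endpoints linearly; if unreached, use highest concentration. The concentration for 50% growth inhibition is given as GI50. At the TGI there is no net growth.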
Experiments:
Assay in all cases: NCI-60 cell line screen, 48 h
[1] = tested on: SR leukemia
[2] = tested on: OVCAR-8 ovarian
[3] = tested on: HT29 colon
[4] = tested on: HCT-15 colon
[5] = tested on: OVCAR-5 ovarian
[6] = tested on: UACC-257 melanoma
[7] = tested on: SK-MEL-5 melanoma
[8] = tested on: HCC-2998 colon
[9] = tested on: UACC-62 melanoma
[10] = tested on: RPMI-8226 leukemia

SMILES: O=C1c2ccccc2C2CNC1(O)c1ccccc12 (stereo not given)
- TGI [1]: > 100 µM
- TGI [2]: > 100 µM
- TGI [3]: > 100 µM
- TGI [4]: > 100 µM
- TGI [5]: > 100 µM
- TGI [6]: > 100 µM
- TGI [7]: > 100 µM
- TGI [8]: > 100 µM
- TGI [9]: > 100 µM
- TGI [10]: > 100 µM

SMILES: O=C(COc1ccc(OCC(=O)N2C(=O)CC(=O)N(c3ccccc3)C2=S)cc1)N1C(=O)CC(=O)N(c2ccccc2)C1=S
- TGI [3]: > 100 µM
- TGI [4]: > 100 µM
- TGI [5]: > 100 µM
- TGI [6]: > 100 µM
- TGI [8]: > 100 µM
- TGI [9]: > 100 µM
- TGI [10]: > 100 µM

SMILES: Cc1[nH]c2ncn(/N=C/c3ccccc3O)c(=N)c2c1Cc1ccccc1
- TGI [2]: > 100 µM
- TGI [3]: > 100 µM
- TGI [4]: > 100 µM
- TGI [5]: > 100 µM
- TGI [6]: > 100 µM
- TGI [8]: 88.7 µM
- TGI [9]: > 100 µM
- TGI [10]: > 100 µM

SMILES: COc1c2cc([N+](=O)[O-])cc1CNC(=O)CN1CCOCCOCCN(CCOCCOCC1)CC(=O)NC2
- TGI [2]: > 100 µM
- TGI [3]: > 100 µM
- TGI [4]: > 100 µM
- TGI [5]: > 100 µM
- TGI [6]: > 100 µM
- TGI [7]: > 100 µM
- TGI [8]: > 100 µM
- TGI [9]: > 100 µM
- TGI [10]: > 100 µM

SMILES: COc1cc2c(cc1OCCCN1CCN(CCCOc3cc4c(cc3OC)C(=O)N3CCC[C@H]3C=N4)CC1)C=CC(C)(C)O2
- GI50 [2]: 1380 nM
- TGI [2]: 3.85 µM
- GI50 [5]: 1700 nM
- TGI [5]: 3.18 µM
- GI50 [6]: 1820 nM
- TGI [6]: 3.52 µM
- GI50 [7]: 1270 nM
- TGI [7]: 2.53 µM
- GI50 [8]: 683 nM
- TGI [8]: 2.07 µM
- GI50 [9]: 1420 nM
- TGI [9]: 2.73 µM
- GI50 [10]: 232 nM
- TGI [10]: 0.699 µM

SMILES: COc1ccc(Cn2c(C)nc3c2C(=O)c2ccccc2C3=O)cc1
- TGI [1]: 10.4 µM
- TGI [2]: > 75 µM
- TGI [3]: > 75 µM
- TGI [4]: > 75 µM
- TGI [6]: 24.7 µM
- TGI [7]: 16.6 µM
- TGI [8]: > 75 µM
- TGI [9]: 14 µM

SMILES: O=C1C=CC2CCC1C2 (stereo not given)
- TGI [2]: > 100 µM
- TGI [3]: > 100 µM
- TGI [4]: > 100 µM
- TGI [5]: 61.6 µM
- TGI [6]: > 100 µM
- TGI [7]: > 100 µM
- TGI [8]: 89.9 µM
- TGI [9]: > 100 µM
- TGI [10]: > 100 µM

SMILES: Cc1ccc(C)n1-c1ccccc1C1SCCCS1
- TGI [2]: > 100 µM
- TGI [3]: > 100 µM
- TGI [4]: > 100 µM
- TGI [5]: > 100 µM
- TGI [6]: > 100 µM
- TGI [7]: > 100 µM
- TGI [8]: > 100 µM
- TGI [9]: > 100 µM
- TGI [10]: > 100 µM

SMILES: COC(=O)c1c2c(cc3c1CC1(Cc4ccccc4C1=O)C3)CCC2 (stereo not given)
- TGI [1]: 58.5 µM
- TGI [2]: > 100 µM
- TGI [3]: 96.9 µM
- TGI [4]: > 100 µM
- TGI [5]: > 100 µM
- TGI [6]: > 100 µM
- TGI [7]: 29.5 µM
- TGI [8]: > 100 µM
- TGI [10]: 99.8 µM

SMILES: CC1=NN(C(=O)CSc2nnc(SCC(=O)N3N=C(C)CC3(O)c3ccccc3)s2)C(O)(c2ccccc2)C1 (stereo not given)
- TGI [1]: > 100 µM
- TGI [2]: > 100 µM
- TGI [4]: > 100 µM
- TGI [5]: > 100 µM
- TGI [6]: > 100 µM
- TGI [7]: > 100 µM
- TGI [8]: > 100 µM
- TGI [9]: 56.3 µM
- TGI [10]: > 100 µM

SMILES: O=c1cnn(C/C=C\CO)c(=O)[nH]1
- TGI [1]: > 100 µM
- TGI [2]: > 100 µM
- TGI [4]: > 100 µM
- TGI [5]: > 100 µM
- TGI [6]: > 100 µM
- TGI [7]: > 100 µM
- TGI [8]: > 100 µM
- TGI [10]: > 100 µM

From PubChem BioAssay (NCI)
